# Assay results taken from publication PMC9718554, “Discovery of a fragment hit compound targeting D-Ala:D-Ala ligase of bacterial peptidoglycan biosynthesis” (Journal of Enzyme Inhibition and Medicinal Chemistry, 2022).
# Read-outs that look alike come from different tables or passages of the source.
# Molecular target: T1, E. coli DdlB enzyme (D-alanine:D-alanine ligase) (Escherichia coli, UniProt P07862)
# T1 construct: made in house; host or cells: E. coli
# Assay: biochemical
# Settings: read-out: DdlB RA; for remaining activity at 1700 µM: tested concentration 1.7 mM; for remaining activity at 1900 µM: tested concentration 1.9 mM; for remaining activity at 2400 µM: tested concentration 2.4 mM; for remaining activity at 2300 µM: tested concentration 2.3 mM; for remaining activity at 3100 µM: tested concentration 3.1 mM; for remaining activity at 2600 µM: tested concentration 2.6 mM; for remaining activity at 3200 µM: tested concentration 3.2 mM; for remaining activity at 2700 µM: tested concentration 2.7 mM; for remaining activity at 2800 µM: tested concentration 2.8 mM; for remaining activity at 2200 µM: tested concentration 2.2 mM; for remaining activity at 3500 µM: tested concentration 3.5 mM; for remaining activity at 2500 µM: tested concentration 2.5 mM; for remaining activity at 2000 µM: tested concentration 2.0 mM; for remaining activity at 1800 µM: tested concentration 1.8 mM; for remaining activity at 3900 µM: tested concentration 3.9 mM; for remaining activity at 5000 µM: tested concentration 5.0 mM
# Protocol: The fragment library was assayed in a DdlB inhibition assay, where fragments were tested for their ability to inhibit the D-Ala-adding activity of DdlB ligase. The orthophosphate formed during the enzymatic reaction was measured spectrophotometrically using malachite green reagent.
# A recombinant E. coli DdlB enzyme (D-alanine:D-alanine ligase) was expressed in E. coli[11]. […] The final DMSO concentration was 5%. […] All experiments were performed in duplicates. […] IC50 values were determined by measuring the residual activities in quadruplicate at seven different compound concentrations and calculated using in GraphPad Prism (GraphPad Software, San Diego, CA, USA).
# [1] = residual activity of DdlB, fragment library screening
smiles,measurement,setting,value
NS(=O)(=O)c1ccc(NC(=O)CCn2cnnn2)cc1 [Compound 8017-4431],remaining activity at 1700 µM,,99%
O=C(O)c1cccc2c1C(=O)N(Cc1ccncc1)C2 [Compound 8017-6147],remaining activity at 1900 µM,fragment library screening,90%
CC1=NN(C(C#N)c2cn(C)nc2C)C(C)(C)C1 (stereo not drawn) [Compound 8017-8222],remaining activity at 2400 µM,,105%
COc1cc(OC)c2cc(C(=O)O)[nH]c2c1 [Compound 8017-9359],remaining activity at 2300 µM,residual activity,104%
Oc1cc(-c2cccnc2)n[nH]1 [Compound 8018-0078],remaining activity at 3100 µM,,91%
N#CCc1nnc(-c2cccc(Cl)c2)[nH]1 [Compound 8018-3009],remaining activity at 2300 µM,residual activity,93%
CC(C)(C)OC(=O)n1c(B(O)O)cc2ccccc21 [Compound 8018-6383],remaining activity at 1900 µM,,75%
Oc1nonc1NCc1ccccc1 [Compound 8018-6481],remaining activity at 2600 µM,,102%
OB(O)c1ccn[nH]1 [Compound 8018-7072],remaining activity at 4500 µM,tested concentration 4.5 mM,87%
Oc1nonc1N1CCOCC1 [Compound 8018-8552],remaining activity at 2900 µM,tested concentration 2.9 mM,92%
Oc1nonc1N1CCCC1 [Compound 8018-8553],remaining activity at 3200 µM,,116%
O=C(O)c1cnn(-c2ccccn2)c1 [Compound 8018-8592],remaining activity at 2700 µM,,94%
Cc1noc(-c2cccnc2Cl)n1 [Compound 8018-8637],remaining activity at 2800 µM,,96%
O=S(=O)(O)c1nnc(-c2ccccc2)o1 [Compound 8018-8658],remaining activity at 2200 µM,,98%
O=C(O)c1cc(CO)on1 [Compound 8018-8667],remaining activity at 3500 µM,,99%
NS(=O)(=O)c1ccc2c(c1)CCN2 [Compound 8018-8673],remaining activity at 2500 µM,,80%
Cc1[nH]c(N)c(C#N)c1C [Compound 8018-8696],remaining activity at 4400 µM,"residual activity of DdlB, fragment library screening, tested concentration 4.4 mM",98%
Nc1ccc2c(c1)[C@@H](O)C[C@@H](C(F)(F)F)O2 [Compound 8018-8746],remaining activity at 2600 µM,,98%
N#CCc1nnn[nH]1 [Compound 8018-8768],remaining activity at 5500 µM,"residual activity of DdlB, fragment library screening, tested concentration 5.5 mM",97%
CCc1c(C)nn(-c2nnn[nH]2)c1O [Compound 8019-0165],remaining activity at 2600 µM,,76%
CC1(C)CC(O)(c2cc(C(=O)O)no2)CCO1 (stereo not drawn) [Compound 8019-4352],remaining activity at 2500 µM,,72%
Cc1nc2ccc(Br)cn2c1C(=O)O [Compound 8019-4469],remaining activity at 2000 µM,residual activity,94%
N#Cc1oc2ccccc2c1N [Compound 8019-4478],remaining activity at 3500 µM,[1],85%
CC(c1c[nH]c2ccccc12)C(O)C(=O)O (stereo not drawn) [Compound 8019-4518],remaining activity at 2300 µM,residual activity,100%
COc1nonc1O [Compound 8019-4549],remaining activity at 4300 µM,tested concentration 4.3 mM,93%
N#CC1(N2CCOCC2)CCCC1 [Compound 8019-5695],remaining activity at 2800 µM,[1],105%
COc1ccccc1Nc1ncccc1C(=O)O [Compound 8019-5848],remaining activity at 2000 µM,residual activity,99%
Cc1nc2c(C)cccn2c1C(=O)O [Compound 8019-6472],remaining activity at 2600 µM,,93%
O=S(=O)(O)c1nc2ccccc2n1Cc1ccccc1 [Compound 8019-7098],remaining activity at 1700 µM,,102%
O=C(O)c1cc(S(=O)(=O)N2CCCC2)ccc1O [Compound 8019-7119],remaining activity at 1800 µM,residual activity,97%
O=C(O)CCc1cc(=O)[nH]o1 [Compound 8019-7777],remaining activity at 3200 µM,,91%
O=C(O)Cc1n[nH]c(-c2ccncc2)n1 [Compound 8019-7883],remaining activity at 2500 µM,,97%
O=C(O)c1ccccc1-c1ncc[nH]1 [Compound 8019-7907],remaining activity at 2700 µM,,102%
Cc1cc(C)c2ccc(C(=O)O)cc2n1 [Compound 8019-7912],remaining activity at 2500 µM,,88%
O=C(O)C1CCN(c2nc3cc(Cl)ccc3o2)CC1 [Compound 8019-8559],remaining activity at 1800 µM,fragment library screening,93%
Cn1ccnc1S(=O)(=O)O [Compound 8019-8648],remaining activity at 3100 µM,,92%
Cn1nnc(-c2ccc(C(=O)O)c(N)c2)n1 [Compound 8019-8673],remaining activity at 2300 µM,residual activity,115%
O=C(Cc1n[nH]c(-c2cccnc2)n1)NCC1CCCO1 (stereo not drawn) [Compound 8019-9738],remaining activity at 1700 µM,residual activity,94%
N#Cc1cccc2[nH]ccc12 [Compound 8019-9980],remaining activity at 4200 µM,,101%
COc1cccc2c(O)c(C(=O)O)cnc12 [Compound 8019-9999],remaining activity at 2300 µM,residual activity,78%
CC(=O)Nc1cc(-n2cnnc2)ccc1C(=O)O [Compound 8020-0076],remaining activity at 2000 µM,residual activity,97%
O=C(O)CCCC1C(=O)Nc2ccccc21 (stereo not drawn) [Compound 8020-0144],remaining activity at 2300 µM,,93%
OC12CC3CC(C1)CC(NCc1cccnc1)(C3)C2 [Compound 8020-0633],remaining activity at 1800 µM,,92%
Cc1nnc(-c2ccc(C(=O)O)c(N)c2)o1 [Compound 8020-0732],remaining activity at 2300 µM,residual activity,114%
O=C(Cc1nc(-c2ccccn2)n[nH]1)NCC1CCCO1 (stereo not drawn) [Compound 8020-1329F],remaining activity at 1700 µM,residual activity,104%
O=C(O)Cc1nc(-c2cnccn2)n[nH]1 [Compound 8020-1590],remaining activity at 2400 µM,,102%
O=C(O)c1cccnc1NCc1ccc(F)cc1 [Compound 8020-1800],remaining activity at 2000 µM,residual activity,102%
Nc1ccc2ncc(C(=O)O)c(O)c2c1 [Compound 8020-1815],remaining activity at 2500 µM,,42%
OCc1noc(C2CC2)n1 [Compound 8020-1925],remaining activity at 3900 µM,[1],98%
O=C1CC(c2ccccc2)c2snc(C(=O)O)c2N1 (stereo not drawn) [Compound 8020-2209],remaining activity at 1800 µM,residual activity,94%
O=C(O)c1cnc(-c2ccc(F)cc2)[nH]c1=O [Compound 8020-2279],remaining activity at 2100 µM,"residual activity, tested concentration 2.1 mM",94%
COc1cccc(F)c1B(O)O [Compound 8020-2294],remaining activity at 2900 µM,,97%
Nc1c(C(=O)O)cnc2ccc(F)cc12 [Compound 8020-2302],remaining activity at 2400 µM,,93%
O=C(O)CCc1cn2cccnc2n1 [Compound 8020-2316],remaining activity at 2600 µM,,94%
O=C(O)c1[nH]c2ccc(F)cc2c1Br [Compound 8020-2406],remaining activity at 1900 µM,residual activity,89%
O=C(O)c1cc(O)no1 [Compound 8020-2787],remaining activity at 3900 µM,,92%
N#CC1CC(c2cccc(Cl)c2)=NO1 (stereo not drawn) [Compound 8020-2797],remaining activity at 2900 µM,tested concentration 2.9 mM,107%
COc1cccc(-c2ncc(C(=O)O)c(=O)[nH]2)c1 [Compound 8020-2801],remaining activity at 2000 µM,residual activity,92%
CCc1ccc(S(N)(=O)=O)cc1N [Compound 8020-2865],remaining activity at 2500 µM,,97%
O=C(O)c1ncoc1-c1ccc2c(c1)OCCO2 [Compound 8020-3638],remaining activity at 2000 µM,residual activity,62%
O=C(O)c1cnc(-c2cccnc2)[nH]c1=O [Compound 8020-5063],remaining activity at 2300 µM,residual activity,94%
O=C1CC(c2cccc(O)c2)c2snc(C(=O)O)c2N1 (stereo not drawn) [Compound 8020-5288],remaining activity at 1700 µM,residual activity,114%
O=C(O)c1cnc(-c2ccc(F)cc2)nc1 [Compound 8020-5433],remaining activity at 2300 µM,,81%
Brc1ccc(-c2nc[nH]n2)cc1 [Compound 8020-5438],remaining activity at 2200 µM,residual activity,88%
O=C(O)Cc1nc(-c2cncc(Br)c2)n[nH]1 [Compound 8020-5455],remaining activity at 1800 µM,residual activity,94%
OC1CCCc2[nH]nc(-c3ccccc3)c21 (stereo not drawn) [Compound 8020-5457],remaining activity at 2300 µM,,96%
O=C1C=C(O)CO1 [Compound 8020-5738],remaining activity at 5000 µM,,98%
Nc1n[nH]c(-c2ccccc2C(=O)O)n1 [Compound 8020-6003],remaining activity at 2500 µM,,98%
O=S(=O)(O)c1nnc(-c2ccncc2)[nH]1 [Compound 8020-6014],remaining activity at 2200 µM,,80%
Cn1c(-c2ccco2)nnc1S(=O)(=O)O [Compound 8020-6142],remaining activity at 2200 µM,,90%
N#Cc1c2c([nH]c(=O)c1C(=O)O)CCCCCC2 [Compound 8020-6316],remaining activity at 2000 µM,,91%
CCc1c(C)[nH]c(=O)c(C(=O)O)c1C(N)=O [Compound 8020-6319],remaining activity at 2200 µM,residual activity,72%
Cn1nccc1-c1cccc(B(O)O)c1 [Compound 8020-6599],remaining activity at 2500 µM,,93%
COc1cc(C#N)cc2[nH]c(=O)oc12 [Compound 8020-7090],remaining activity at 2600 µM,,97%
O=c1[nH]c2ccc(O)cc2o1 [Compound 8020-7157],remaining activity at 3300 µM,tested concentration 3.3 mM,96%
O=S(=O)(O)c1ccc2[nH]nnc2c1 [Compound 8020-8129],remaining activity at 2500 µM,,93%
Nc1cc(=O)[nH]o1 [Compound 8020-8247],remaining activity at 5000 µM,,97%
Cc1ccc(C(C)C)cc1S(=O)(=O)O [Compound 8020-8310],remaining activity at 2300 µM,,91%
